Experimental data: publication PMC11325555, “Interaction of Bisphenol A and Its Analogs with Estrogen and Androgen Receptor from Atlantic Cod (Gadus morhua)” (Environmental Science & Technology, 2024)

Experiments:
[1] = biological target: T1, Atlantic cod androgen receptor alpha (gmAra) LBD (Gadus morhua, UniProt D5FIC7); experiment: Luciferase reporter gene assay, gmAra agonism (androgenic activity) in transfected COS-7 cells; details: fold activation in luciferase activity vs solvent control; 24 h exposure; a = plateau not reached
T1 sequence (D5FIC7 409-718): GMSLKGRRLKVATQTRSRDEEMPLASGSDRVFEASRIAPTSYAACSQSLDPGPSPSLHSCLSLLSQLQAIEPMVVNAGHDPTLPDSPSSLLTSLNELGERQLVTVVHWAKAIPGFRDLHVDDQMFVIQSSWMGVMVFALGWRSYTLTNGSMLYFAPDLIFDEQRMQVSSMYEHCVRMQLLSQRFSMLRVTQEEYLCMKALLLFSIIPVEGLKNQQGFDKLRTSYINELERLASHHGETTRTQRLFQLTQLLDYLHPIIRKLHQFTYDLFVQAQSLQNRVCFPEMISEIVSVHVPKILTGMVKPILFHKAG
Procedure: (§1) Ligand activation of gmEra and gmAra was studied with a luciferase reporter gene assay in COS-7 cells transiently transfected with the pCMX-GAL4(DBD)-gmEra(LBD) or pCMX-GAL4(DBD)-gmAra(LBD) plasmid by using the TransIT-LT1 reagent (TransIT-LT1 Transfection Reagent, Mirus). Cells were seeded into 96-well plates (5000 cells/well) and incubated for 24 h before cotransfection with the plasmid mixture (100 ng/well). The plasmid mixture contained GAL4-UAS luciferase reporter plasmid (tk-(MH100)x4 luc), the pCMX-GAL4(DBD)-gmEra(LBD) or pCMX-GAL4(DBD)-gmAra(LBD) receptor plasmids (2:1 reporter:receptor plasmid mass ratio), and a plasmid constitutively producing the β-galactosidase enzyme used for normalization of transfection efficiency (pCMV- β-Gal). […] The maximum DMSO/methanol concentrations in the exposure wells were 0.5% (v/v) in DMEM medium without phenol red (Sigma-Aldrich). After exposure, cells were lysed, and luciferase and beta-galactosidase activities were measured as luminescence and absorbance (420 nm) after the addition of luciferin and ONPG substrates, respectively, using an Enspire Multimode plate reader (PerkinElmer, Waltham, Massachusetts, USA).
Figure 3 Androgenic activity of bisphenols. COS-7 cells were transiently transfected with gmAra LBD and exposed individually to 12 bisphenol analogs at increasing concentrations. […] The dose–response curves were created using nonlinear regression and the four-parameter logistic fit in Graphpad Prism v.9. For comparison, the dose–response curve of BPA (black line) is indicated together with each individual BP tested (red line). *p < 0.05 versus solvent control by one-way ANOVA and Dunnett’s multiple comparison post hoc test.

[2] = test system: Er-mediated synthesis of Vtg in Atlantic cod PCLS; experiment: Vitellogenin ELISA in media of exposed precision-cut liver slices (PCLS); assay type: cell-based, Atlantic cod (Gadus morhua); details: 96 h; for Vtg synthesis in PCLS, result in words: 1, 10, 100 μM bisphenols or 0.1, 1, 10 nM EE2, Vtg in media by ELISA; for concentration at which maximum Vtg levels were observed: 1, 10, 100 μM tested
Procedure: PCLS culturing and exposure assays were performed essentially as described previously,[42],[56] with the modifications described below. Juvenile Atlantic cod were killed by a blow to the head, and the liver was dissected out and placed in a Petri dish containing ice-cold PCLS buffer (122 mM NaCl, 4.8 mM KCl, 1.2 mM MgSO4, 11 mM Na2HPO4, 3.7 mM NaHCO3, […]). The liver was then cut into small tissue blocks (approximately 3 cm long, 2 cm wide, and 1–3 cm high) and kept in ice-cold complete culture medium (L-15 medium supplemented with 10% FBS and 1× antibiotic-antimycotic solution). For slicing, the tissue block was fixed on the specimen plate of a Leica vibrating blade microtome VT1200 (Leica, Wetzlar, Germany) using Loctite Super Glue (Clas Ohlson, Bergen, Norway), and 250 μm thick tissue slices were cut (under ice-cold PCLS buffer) and kept in a Petri dish with ice-cold complete culture medium. Using a sterile razor blade, the tissue slices (2 × 3 cm) were then divided into smaller pieces (approximately 4 × 4 mm) and distributed into a 12-well cell culture plate (Sarstedt, Nümbrecht, Germany), each well containing 6 slices and 2 mL of complete culture medium. The PCLS were preincubated at 10 °C for 2 h before exposure. After preincubation, 1 mL of the medium was removed from each well and replaced by 1 mL of fresh complete culture medium containing 2x the final desired concentration and incubated at 10 °C for 96 h with shaking at 50 rpm. […] At the end of the exposure, slices were collected with tweezers and rinsed briefly in cold PBS. Excess PBS was removed by carefully touching a dry surface of the culture plate with the slice 4 times before measuring the weight in a preweighed cryotube. The slices were then snap-frozen in liquid N2 and stored at −80 °C. The media was also sampled and stored at −80 °C for viability (LDH) assay and vitellogenin ELISA.
Vitellogenin (Vtg) in media collected from exposed PCLS was quantified using the Atlantic Cod Vitellogenin ELISA kit (Biosense Laboratories AS, Bergen, Norway) according to manufacturer’s instructions. Vtg was quantified in 100 μL of undiluted media and normalized to the weight of the liver tissue. Statistical analysis of ELISA data was performed with GraphPad Prism Software version 9 (GraphPad Prism, La Jolla, CA, USA) by using one-way ANOVA followed by Dunnett’s test (for normally distributed data) or Friedman test followed by Dunn’s test (for non-normally distributed data), as described previously for PCLS experiments (Yadetie et al.[42]).
Figure 5 Relative vitellogenin production in Atlantic cod precision-cut liver slices (PCLS) exposed to bisphenols and EE2. PCLS were exposed to 1, 10, and 100 μM bisphenols or 0.1, 1, and 10 nM EE2, for 96 h. EE2 was included as positive control for activation of the gmEra signaling pathway. Levels of induced Vtg in the PCLS media were measured using ELISA (Cod Vitellogenin ELISA kit, Biosense Laboratories AS). The data represents mean ± SEM of fold change (compared to solvent control) of Vtg levels from 4 to 10 fish. n = 8–10 for all bisphenols except for BADGE (n = 4). Asterisks denote significant changes (p < 0.05) compared to solvent control.

[3] = biological target: T2, Atlantic cod estrogen receptor alpha (gmEra) LBD (Gadus morhua, UniProt U5ILH7); experiment: Luciferase reporter gene assay, gmEra agonism (estrogenic activity) in transfected COS-7 cells
T2 sequence (U5ILH7 170-455): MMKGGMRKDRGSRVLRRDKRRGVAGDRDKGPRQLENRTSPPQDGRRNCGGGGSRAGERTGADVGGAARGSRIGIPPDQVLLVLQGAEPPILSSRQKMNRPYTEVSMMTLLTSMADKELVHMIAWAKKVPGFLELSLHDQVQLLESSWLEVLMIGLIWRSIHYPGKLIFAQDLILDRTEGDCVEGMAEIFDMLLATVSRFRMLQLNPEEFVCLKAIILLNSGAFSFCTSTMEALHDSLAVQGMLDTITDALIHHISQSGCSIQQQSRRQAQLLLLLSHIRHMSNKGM
Procedure: as §1
Luciferase reporter gene assays were established with COS-7 cells transiently producing the LBD of gmEra (Figure S1) for evaluating the estrogenic potential of 12 bisphenols.
COS-7 cells transiently transfected with gmEra-LBD were exposed to EE2 (open circles), BPA (black circles), and 11 different BPA analogs (red squares and as indicated) at increasing concentrations. Responses are presented as mean fold activation in luciferase activity in comparison to solvent-exposed cells ± SEM from three independent experiments with three technical replicates (n = 9). The dose–response curves were created using nonlinear regression and the four parameter logistic fit in Graphpad Prism v.9. For comparison, the dose–response curve of BPA (black line) is indicated together with each individual BP tested (red line). *p < 0.05 versus solvent control by one-way ANOVA and Dunnett’s multiple comparison post hoc test.

[4] = biological target: T1, Atlantic cod androgen receptor alpha (gmAra) LBD; experiment: Luciferase reporter gene assay, gmAra antagonism (antiandrogenic activity), coexposure with 5 nM testosterone; assay type: cell-based; details: for effect on testosterone-mediated gmAra activity, result in words: BPs 0.003–50 μM with 5 nM testosterone; for IC50: gmAra IC50, in the presence of 5 nM testosterone (EC20)
Procedure: as §1
(§2) The dose–response curves were created using nonlinear regression and the four-parameter logistic fit in Graphpad Prism v.9. *p < 0.05 versus solvent control by ANOVA and Dunnett’s multiple comparison post hoc test.

COS-7 cells = experiment: Cytotoxicity toward COS-7 cells (resazurin and CFDA-AM assays); details: 24 h; for concentration that affected COS-7 cell viability: binary combination with 0.003 μM EE2
Excerpt: The cytotoxicity of the test compounds toward COS-7 cells was monitored by measuring the metabolic activity and membrane integrity through the conversion of resazurin and 5-carboxyfluorescein diacetate acetoxymethyl ester (CFDA-AM), respectively, as described previously by Pérez-Albaladejo et al.[54] […]
used as a negative control.
Figure S2. Assessing metabolic activity (resazurin) and cell membrane integrity (CFDA-AM) in COS-7 cells after BP exposures. COS-7 cells were exposed to three concentrations of each BP, as well as three concentrations […]
exposed at 37 °C and 5 % CO2 for 24 hours. Cytotoxicity is indicated by a reduction in the fluorescent signal (denoted as % Cell survival) relative to the solvent control (DMSO, dotted line) adjusted to 100 %. A reduction in cell viability exceeding 20 % is generally regarded as cytotoxic (indicated with a red dotted line) (ISO, I. 2009.
10993–5: 2009 Biological evaluation of medical devices—part 5: tests for in vitro cytotoxicity. International Organization for Standardization, Geneva.).
(1 picture or pasted object on this page, not shown here)

[5] = biological target: T2, Atlantic cod estrogen receptor alpha (gmEra) LBD; experiment: Luciferase reporter gene assay, gmEra antagonism (antiestrogenic activity), coexposure with 3 nM EE2; assay type: cell-based; details: for antiestrogenic effect on gmEra, result in words: coexposure with EE2 (3 nM, EC20)
Procedure: as §1
To investigate potential antiestrogenic effects, COS-7 cells transiently expressing gmEra LBD were exposed to the 12 bisphenols in binary mixtures with a fixed concentration of EE2 (3 nM, corresponding to EC20) (Figure 2 and Table 1).
as §2

[6] = gmEra EC50, four-parameter logistic fit, 24 h exposure
[7] = antiandrogenic reporter assay conditions (with testosterone), highest concentration used

C[C@]12CC[C@H]3[C@@H](CCC4=CC(=O)CC[C@@]43C)[C@@H]1CC[C@@H]2O [T, testosterone, reference compound]
gmAra Emax [1]: 42.1 fold activation

C#C[C@]1(O)CC[C@H]2[C@@H]3CCc4cc(O)ccc4[C@H]3CC[C@@]21C [EE2, 17α-Ethynylestradiol, reference compound]
Vtg synthesis in PCLS, result in words [2]: increased Vtg-levels in the media in a dose-dependent manner
maximal fold induction ([3]; COS-7, monkey, 24 h, read-out: gmEra Emax): 80
potency toward gmEra relative to BPA (times more potent) ([3]; EE2 compared with BPA): ~10^3
EC50 [3, 6]: 7 nM
EC50 ([3]; gmEra EC50, value given in text): 6.8 nM
gmEra REP50 (relative potency EC50, EC50-bisphenol A/EC50-bisphenol X) ([3]; relative to BPA): 271

CC1CC(C)(C)CC(c2ccc(O)cc2)(c2ccc(O)cc2)C1 (centres unmarked) [BPTMC]
effect on testosterone-mediated gmAra activity, result in words [4]: significantly decrease the testosterone-mediated Ara-activity
IC50 [4]: 1750 nM
concentration at which maximum Vtg levels were observed [2]: 10 µM
cytotoxic concentration in COS-7 cells (COS-7 cells; [7]): 50 µM
concentration that affected COS-7 cell viability (COS-7 cells; highest concentration used): 50 µM

Oc1ccc(C(=C(Cl)Cl)c2ccc(O)cc2)cc1 [BPC2]
IC50 [5]: 60 nM
EC50 [3, 6]: 200 nM

Oc1ccc(C2(c3ccc(O)cc3)CCCCC2)cc1 [BPZ]
effect on testosterone-mediated gmAra activity, result in words [4]: significantly decrease the testosterone-mediated Ara-activity
IC50 [4]: 880 nM
effect on testosterone-mediated gmAra activity at lower concentrations, result in words ([4]; lower concentrations used (3–80 nM) with 5 nM testosterone): significant increases in gmAr activity
Vtg synthesis in PCLS, result in words [2]: only moderate and not statistically significant
concentration at which maximum Vtg levels were observed [2]: 10 µM
cytotoxic concentration in COS-7 cells (COS-7 cells; [7]): 50 µM
concentration that affected COS-7 cell viability (COS-7 cells; highest concentration used): 50 µM

Oc1ccc(C(c2ccc(O)cc2)(C(F)(F)F)C(F)(F)F)cc1 [BPAF]
antiestrogenic effect on gmEra, result in words [5]: no antiestrogenic effects
concentration at which maximum Vtg levels were observed [2]: 10 µM
EC50 [3, 6]: 230 nM
cytotoxic concentration in COS-7 cells (COS-7 cells; African green monkey): 50 µM

CC(C)c1cc(C(C)(C)c2ccc(O)c(C(C)C)c2)ccc1O [BPG]
effect on testosterone-mediated gmAra activity, result in words [4]: significantly decrease the testosterone-mediated Ara-activity
IC50 [4]: 200 nM
Vtg synthesis in PCLS, result in words [2]: able to induce Vtg synthesis in PCLS
cytotoxic concentration in COS-7 cells (COS-7 cells; [7]): 50 µM
concentration that affected COS-7 cell viability (COS-7 cells; highest concentration used): 50 µM

CCC(C)(c1ccc(O)cc1)c1ccc(O)cc1 [BPB]
antiestrogenic effect on gmEra, result in words [5]: no antiestrogenic effects
EC50 [3, 6]: 1600 nM

Oc1ccc(Cc2ccc(O)cc2)cc1 [BPF]
antiestrogenic effect on gmEra, result in words [5]: no antiestrogenic effects
Vtg synthesis in PCLS, result in words [2]: induced the highest Vtg-levels ex vivo
EC50 [3, 6]: 3800 nM

O=S(=O)(c1ccc(O)cc1)c1ccc(O)cc1 [BPS]
antiestrogenic effect on gmEra, result in words [5]: no antiestrogenic effects
EC50 [3, 6]: 83300 nM

CC(C)C(=O)Nc1ccc([N+](=O)[O-])c(C(F)(F)F)c1 [flutamide, reference compound]
IC50 [4]: ~710 nM
